Reference: ChEMBL document CHEMBL1201862, “PubChem BioAssay data set” (2004)
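Test compounds were applied to cells in 96-well plates for 48 hours at 5 doses. GI50: concentration for 50% inhibition of growth.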 Activity calls are given as the source filed them. Cut-off read from the data, not from the text of the source: active = GI50 up to about 1.1 µM and inactive = higher.

Assays:
Test in all cases: NCI tumour cell line growth inhibition, 48 h
[1] = tested on: BT-549
[2] = tested on: HCT-15
[3] = tested on: SNB-19
[4] = tested on: A498
[5] = tested on: Hs-578T
[6] = tested on: M14
[7] = tested on: HCT-116
[8] = tested on: OVCAR-4
[9] = tested on: UACC-62
[10] = tested on: 786-0
[11] = tested on: DU-145
[12] = tested on: SF-268
[13] = tested on: OVCAR-3
[14] = tested on: OVCAR-8
[15] = tested on: ACHN
[16] = tested on: NCI-H522
[17] = tested on: MDA-N
[18] = tested on: TK-10
[19] = tested on: HOP-92
[20] = tested on: SK-MEL-5
[21] = tested on: SW-620
[22] = tested on: PC-3
[23] = tested on: OVCAR-5
[24] = tested on: HCC 2998
[25] = tested on: HT-29
[26] = tested on: NCI-H460
[27] = tested on: LOX IMVI
[28] = tested on: SK-MEL-2
[29] = tested on: RPMI-8226
[30] = tested on: COLO 205
[31] = tested on: NCI-H226
[32] = tested on: UACC-257
[33] = tested on: A549
[34] = tested on: NCI/ADR-RES
[35] = tested on: MDA-MB-435
[36] = tested on: MCF7
[37] = tested on: NCI-H23
[38] = tested on: SK-MEL-28
[39] = tested on: UO-31
[40] = tested on: EKVX
[41] = tested on: U-251
[42] = tested on: SN12C
[43] = tested on: SR
[44] = tested on: MDA-MB-231
[45] = tested on: IGROV-1
[46] = tested on: SK-OV-3
[47] = tested on: CCRF-CEM
[48] = tested on: SF-539
[49] = tested on: K562
[50] = tested on: T47D
[51] = tested on: HL-60
[52] = tested on: SF-295
[53] = tested on: CAKI-1
[54] = tested on: KM12
[55] = tested on: MOLT-4
[56] = tested on: Malme-3M
[57] = tested on: RXF 393
[58] = tested on: HOP-62
[59] = tested on: SNB-75

Measured: GI50

COc1cc(C2SCC(=O)N2c2ccc(NC(C)=O)cc2)cc(OC)c1OC (stereo not given)
94.2 µM: [2]
inactive: [1] 36.6 µM | [3] > 100 µM | [4] > 100 µM | [5] > 100 µM | [6] > 100 µM | [7] 69.7 µM | [8] > 100 µM | [9] 25.5 µM | [10] > 100 µM | [11] > 100 µM | [12] > 100 µM | [13] > 100 µM | [14] 77.1 µM | [15] > 100 µM | [16] 71.4 µM | [17] 33.8 µM | [18] > 100 µM | [19] 48.3 µM | [20] > 100 µM | [21] > 100 µM | [22] > 100 µM | [23] > 100 µM | [24] > 100 µM | [25] 90.4 µM | [26] > 100 µM | [27] > 100 µM | [28] > 100 µM | [29] > 100 µM | [30] > 100 µM | [31] > 100 µM | [32] > 100 µM | [33] > 100 µM | [34] 88.3 µM | [35] 52.7 µM | [36] 51.3 µM | [37] > 100 µM | [38] > 100 µM | [39] > 100 µM | [40] > 100 µM | [41] > 100 µM | [42] 81.5 µM | [43] 31.2 µM | [44] > 100 µM | [45] > 100 µM | [46] > 100 µM | [47] 25.9 µM | [48] > 100 µM | [49] > 100 µM | [50] 16.6 µM | [51] > 100 µM | [52] > 100 µM | [53] 65.2 µM | [54] > 100 µM | [55] 50.9 µM

COc1cc(S(=O)(=O)Nc2nc(-c3ccc(N4C(=O)/C(=C/c5ccccc5)N=C4c4ccccc4)cc3)cs2)ccc1Cl
> 100 µM: [2]
inactive: [1] 38.5 µM | [3] 50.6 µM | [4] 31.3 µM | [5] 21 µM | [6] 56.4 µM | [7] 36.5 µM | [8] 31.3 µM | [56] 30.8 µM | [57] 32.1 µM | [9] 21.2 µM | [10] 63.5 µM | [11] > 100 µM | [58] 29 µM | [12] 25 µM | [59] 39.6 µM | [13] 11.9 µM | [14] 44.4 µM | [15] > 100 µM | [16] 35.3 µM | [17] 37.3 µM | [18] > 100 µM | [19] 34.4 µM | [20] 26.9 µM | [21] 55.1 µM | [22] 36.6 µM | [23] > 100 µM | [25] 78.3 µM | [26] > 100 µM | [27] 34.5 µM | [28] 24.6 µM | [30] 40 µM | [31] 62.5 µM | [32] 55.2 µM | [33] > 100 µM | [34] > 100 µM | [35] 46.9 µM | [36] 35.6 µM | [37] 25.2 µM | [38] 54.7 µM | [39] > 100 µM | [41] 36 µM | [42] 45 µM | [43] 36.1 µM | [44] 21.3 µM | [45] 44.2 µM | [46] > 100 µM | [47] 34.6 µM | [48] 41.1 µM | [49] 41.6 µM | [50] 42.2 µM | [52] > 100 µM | [53] > 100 µM | [54] 50.6 µM | [55] 28.2 µM

O1C2C1C1OC1C1OC1C1OC21 (stereo not given)
active: [47] < 0.01 µM
> 100 µM: [2]
inactive: [1] > 100 µM | [3] > 100 µM | [4] > 100 µM | [5] > 100 µM | [6] > 100 µM | [7] > 100 µM | [8] > 100 µM | [56] > 100 µM | [9] > 100 µM | [10] > 100 µM | [11] > 100 µM | [58] > 100 µM | [12] > 100 µM | [59] 46.6 µM | [14] > 100 µM | [15] > 100 µM | [16] > 100 µM | [17] > 100 µM | [18] > 100 µM | [19] > 100 µM | [20] > 100 µM | [22] > 100 µM | [23] > 100 µM | [25] > 100 µM | [27] > 100 µM | [28] > 100 µM | [30] > 100 µM | [31] > 100 µM | [32] > 100 µM | [33] > 100 µM | [34] > 100 µM | [35] > 100 µM | [36] > 100 µM | [37] > 100 µM | [38] > 100 µM | [39] > 100 µM | [40] > 100 µM | [41] > 100 µM | [42] > 100 µM | [43] > 100 µM | [44] > 100 µM | [46] > 100 µM | [49] > 100 µM | [50] > 100 µM | [52] > 100 µM | [53] > 100 µM | [54] > 100 µM | [55] > 100 µM
